The source of these data is paper PMC7397269, “Synthesis and Evaluation of New Coumarin Derivatives as Antioxidant, Antimicrobial, and Anti-Inflammatory Agents” (Molecules, 2020).

For assay [1], the system named is Pseudomonas aeruginosa ATCC 27,953. In words: Agar well diffusion, P. aeruginosa. The conditions noted are these: ATCC27, 100 μL of 10 mg/mL in DMSO, read-out: diameter of inhibition zone, PA. The class given is cell-based. A digest of the protocol: (§1)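 Wells (10 mm) in nutrient agar (bacteria, 1 × 10^8 CFU/mL) or Sabouraud dextrose agar (yeast, 1 × 10^6 CFU/mL) loaded with 100 μL of 10 mg/mL compound in DMSO. Plates incubated 24 h at 37 °C. Inhibition zone diameter (mm), mean of triplicates.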

Assay [2] relates to Candida albicans NRRL Y-477. In words: Agar well diffusion, C. albicans. The class given is cell-based. The conditions noted are these: NRRLY477, 100 μL of 10 mg/mL in DMSO, read-out: diameter of inhibition zone, CA. The method, boiled down: as §1
Background: A growth-free zone around the sample is the usual read-out of agar diffusion tests.

The subject of assay [3] is Bacillus megaterium ATCC 9885. Description: Agar well diffusion, B. megaterium. The assay is classed as cell-based. The conditions noted are these: Priestia megaterium, ATCC9885, 100 μL of 10 mg/mL in DMSO, read-out: diameter of inhibition zone, BM. A digest of the protocol: as §1
A short description of assay [4]: DPPH antioxidant assay (radical scavenging). The class given is biochemical. The conditions noted are these: mean ± SD (n = 3). The method, boiled down: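 Compounds, starting at 200 μg/mL, were mixed with 0.2 mM methanolic DPPH and incubated 30 min in the dark at 25 °C; absorbance was read at 515 nm. % inhibition is background-corrected against DPPH-only control, with IC50 from curve fit. Runs were triplicate (mean ± SD), with ascorbic acid as positive control.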
Background: The DPPH test is a chemical assay of radical scavenging.

Assay [5] deals with Bacillus subtilis ATCC 6633. In words: MIC, two-fold serial dilution, B. subtilis. The conditions noted are these: ATCC6633, read-out: Minimum inhibitory concentration, BS. The class given is cell-based. An excerpt:
(§2) The new molecules were individually tested for their antimicrobial activity in vitro against standard bacteria strains from the American Type Culture Collection (ATCC), namely, Staphylococcus aureus ATCC 29213, Bacillus subtilis ATCC 6633, Bacillus megaterium ATCC 9885 (Gram-positive), Escherichia coli ATCC 2592, and Pseudomonas aeruginosa ATCC 27,953 (Gram-negative). The compounds were also microbiologically tested against locally isolated Saccharomyces cerevisiae (yeast) and the standard Agricultural Research Service Culture Collection (NRRL) strain of the yeast-like pathogenic fungus Candida albicans NRRL Y-477. Primary screening was conducted using the agar well diffusion method using nutrient agar (NA) medium and Sabourand dextrose agar (SDA) medium for the tested pathological bacteria and yeast, respectively. […].
(§3) The bacteriostatic activity of the active compounds (having IZ > 16 mm) was then evaluated using the two-fold serial dilution technique. Two-fold serial dilutions of the tested compounds solutions were prepared using the proper nutrient broth to reach final concentrations of 1000, 500, 250, and 125 μg/mL. The tubes were then inoculated with the test microorganisms grown in their suitable broth at 37 °C for 24 h (1 × 10^8 CFU/mL for bacteria and 1 × 10^6 CFU/mL of yeast), 0.1 mL of the above inoculum was administered per 5 mL, and the tubes were incubated at 37 °C for 24 h. The lowest concentration showing no growth was taken as the MIC.

The test system of a further assay is tested microorganisms. Description: MIC, summary over the tested microorganisms. The class given is cell-based. The conditions noted are these: two-fold serial dilution.
From the text: as §2, §3

For assay [6], the system named is formaldehyde-induced rat paw oedema. In words: Formaldehyde-induced rat paw oedema (prophylactic). The class given is in vivo. The conditions noted are these: 2.5 mg/kg orally, 1 h after inducing inflammation.
The mark [7] stands for this setting: read-out: MIC against Gram-positive bacteria.
Setting [8] is: read-out: MIC against one or more tested microorganisms.

Molecules are shown by their SMILES. Converted amounts (≈) assume the structure as drawn. Where two headings read alike, the source gives them in different places.

Regarding `Cc1ccc2oc(=O)c3c(c2c1)OC(N)=C(C#N)C3c1ccc([N+](=O)[O-])cc1` (racemic) [2a, (±)-2-Amino-9-methyl-4-(4-nitrophenyl)-5-oxo-4H,5H-pyrano[3,2-c]chromene-3-carbonitrile], the values for the zone of inhibition at 10000 µg/mL in assay [1], in assay [2] and in assay [3] were 20 mm, 22 mm and 25 mm, respectively. Moreover, the IC50 (as a rule, the point on the concentration scale where inhibition reaches its midpoint) in assay [4] is “— ((—): inactive (IC50 > 200 μg/mL))”. Besides, the MIC in assay [5] was 500 µg/mL (≈ 1330 µM); in the assay on tested microorganisms (setting [7]), 500 to 1000 µg/mL (≈ 1330 to 2660 µM).

Regarding `Cc1ccc2oc(=O)c3c(c2c1)OC(N)=C(C#N)C3c1ccco1` (racemic) [2b, (±)-2-Amino-4-(furan-2-yl)-9-methyl-5-oxo-4H,5H-pyrano[3,2-c]chromene-3-carbonitrile], the zone of inhibition – broadly, the extent of the growth-free halo in a diffusion test – at 10000 µg/mL in assay [1] worked out at 21 mm; in assay [2], 23 mm; in assay [3] it was 25 mm. Moreover, in assay [4], the IC50 result is “— ((—): inactive (IC50 > 200 μg/mL))”. In addition, the MIC in assay [5] was 500 µg/mL (≈ 1560 µM); with tested microorganisms (setting [7]) it was 500 to 1000 µg/mL (≈ 1560 to 3120 µM). For the same compound, the “% inhibition of paw oedema” value in assay [6] stood at 6.57%.

In the case of `COc1cc(/C=N/C2=C(C#N)C(c3ccc([N+](=O)[O-])cc3)c3c(c4cc(C)ccc4oc3=O)O2)cc(OC)c1OC` (racemic) [5c, (±)-9-methyl-4-(4-nitrophenyl)-5-oxo-2-((3,4,5-trimethoxybenzylidene)amino)-4H,5H-pyrano[3,2-c]chromene-3-carbonitrile], the results for the zone of inhibition at 10000 µg/mL in assay [1], in assay [2] and in assay [3] were 25 mm, 24 mm and 24 mm, respectively. In assay [4], the concentration for half-maximal inhibition (IC50) result was “— ((—): inactive (IC50 > 200 μg/mL))”. Besides, the MIC in assay [5] was found to be 500 µg/mL (≈ 903 µM).

For `Cc1ccc2oc(=O)c3c(c2c1)OC(/N=C/c1ccc(Cl)cc1Cl)=C(C#N)C3c1ccco1` (racemic) [5f, (±)-2-((2,4-dichlorobenzylidene)amino)-4-(furan-2-yl)-9-methyl-5-oxo-4H,5H-pyrano[3,2-c]chromene-3-carbonitrile], the zone of inhibition at 10000 µg/mL was 21 mm in assay [1], 22 mm in assay [2] and 20 mm in assay [3]. In addition, the IC50 result in assay [4] is “— ((—): inactive (IC50 > 200 μg/mL))”. The MIC is 500 µg/mL (≈ 1050 µM) in assay [5] and 500 to 1000 µg/mL (≈ 1050 to 2100 µM) in the assay with tested microorganisms (setting [7]).

In the case of `NS(=O)(=O)c1ccc(NS(=O)(=O)c2c(O)c3cc(Cl)ccc3oc2=O)cc1` [7a, 6-Chloro-4-hydroxy-2-oxo-N-(4-sulfamoylphenyl)-2H-chromene-3-sulfonamide], the zone of inhibition at 10000 µg/mL in assay [1] came to 27 mm; in assay [2], 26 mm; in assay [3] it was 25 mm. In assay [4], this compound gave an IC50 of 93.12 ± 0.727 µg/mL (≈ 216 µM). For the same compound, in assay [5], the MIC came to 250 µg/mL (≈ 580 µM).

On to `O=c1oc2ccc(Cl)cc2c(O)c1S(=O)(=O)Nc1ccc(S(=O)(=O)Nc2ncccn2)cc1` [7c, 6-Chloro-4-hydroxy-2-oxo-N-(4-(N-(pyrimidin-2-yl)sulfamoyl)phenyl)-2H-chromene-3-sulfonamide], for which the zone of inhibition at 10000 µg/mL stood at 24 mm in assay [1], 27 mm in assay [2] and 30 mm in assay [3]. This compound displayed a half-inhibitory concentration (IC50) in assay [4] of 120.12 ± 4.629 µg/mL (≈ 236 µM). Also, the MIC (in assay [5]; with tested microorganisms (setting [8])) was 125 µg/mL (≈ 246 µM) in each case.

On to `Cc1ccc2oc(=O)c(S(=O)(=O)Nc3ccc(S(=O)(=O)Nc4ncccn4)cc3)c(O)c2c1` [7d, 4-Hydroxy-6-methyl-2-oxo-N-(4-(N-(pyrimidin-2-yl)sulfamoyl)phenyl)-2H-chromene-3-sulfonamide], for which the zone of inhibition at 10000 µg/mL in assay [1] is 25 mm; in assay [2] it was 30 mm; in assay [3], 30 mm. This compound gave a half-maximal inhibitory concentration (IC50) in assay [4] of 112.19 ± 4.391 µg/mL (≈ 230 µM). In addition, the MIC (in assay [5]; with tested microorganisms (read-out: MIC against all microorganisms); in the assay on tested microorganisms (setting [8])) was 125 µg/mL (≈ 256 µM) throughout.

On to `O=c1oc2ccc(Cl)cc2c(O)c1S(=O)(=O)Nc1ccc(S(=O)(=O)Nc2nccs2)cc1` [7e, 6-Chloro-4-hydroxy-2-oxo-N-(4-(N-(thiazol-2-yl)sulfamoyl)phenyl)-2H-chromene-3-sulfonamide], for which the figures for the zone of inhibition at 10000 µg/mL in assay [1], in assay [2] and in assay [3] were 22 mm, 23 mm and 25 mm, respectively. In assay [4], this compound had an IC50 of 71.67 ± 3.231 µg/mL (≈ 139 µM). Further, the MIC in assay [5] was found to be 500 µg/mL (≈ 973 µM).

On to `Cc1ccc2oc(=O)c(S(=O)(=O)Nc3ccc(S(=O)(=O)Nc4nccs4)cc3)c(O)c2c1` [7f, 4-Hydroxy-6-methyl-2-oxo-N-(4-(N-(thiazol-2-yl)sulfamoyl)phenyl)-2H-chromene-3-sulfonamide], for which the results for the zone of inhibition at 10000 µg/mL in assay [1], in assay [2] and in assay [3] were 24 mm, 24 mm and 27 mm, respectively. In assay [4], this compound yielded an IC50 of 83.52 ± 1.849 µg/mL (≈ 169 µM). Moreover, the MIC in assay [5] came to 250 µg/mL (≈ 507 µM). Further, the “% inhibition of paw oedema” value in assay [6] was 17.18%.

For `O=c1oc2ccc(Cl)cc2c(O)c1S(=O)(=O)Nc1ccccc1` [8a, 6-Chloro-4-hydroxy-2-oxo-N-phenyl-2H-chromene-3-sulfonamide], the results for the zone of inhibition at 10000 µg/mL in assay [1], in assay [2] and in assay [3] were 26 mm, 29 mm and 29 mm, respectively. The compound further registered an IC50 in assay [4] of 14.51 ± 1.827 µg/mL (≈ 41.2 µM). Also, the MIC in assay [5] was 250 µg/mL (≈ 711 µM).

For the compound `Cc1ccc2oc(=O)c(S(=O)(=O)Nc3ccccc3)c(O)c2c1` [8b, 4-Hydroxy-6-methyl-2-oxo-N-phenyl-2H-chromene-3-sulfonamide], the zone of inhibition at 10000 µg/mL in assay [1] was found to be 17 mm; in assay [2], 20 mm; in assay [3] it was 24 mm. This compound returned an IC50 in assay [4] of 19.25 ± 4.171 µg/mL (≈ 58.1 µM). Moreover, the MIC in assay [5] stood at 1000 µg/mL (≈ 3020 µM).

With `O=c1oc2ccc(Cl)cc2c(O)c1S(=O)(=O)Nc1ccc(O)cc1` [8c, 6-Chloro-4-hydroxy-N-(4-hydroxyphenyl)-2-oxo-2H-chromene-3-sulfonamide], the zone of inhibition at 10000 µg/mL in assay [1] is 29 mm; in assay [2], 30 mm; in assay [3] it was 28 mm. In addition, in assay [4], the IC50 came to 3.87 ± 0.409 µg/mL (≈ 10.5 µM). In addition, the MIC (in assay [5]; in the assay with tested microorganisms (setting [8])) was 125 µg/mL (≈ 340 µM) each time. The “% inhibition of paw oedema” value in assay [6] is 9.45%.

On to `Cc1ccc2oc(=O)c(S(=O)(=O)Nc3ccc(O)cc3)c(O)c2c1` [8d, 4-Hydroxy-N-(4-hydroxyphenyl)-6-methyl-2-oxo-2H-chromene-3-sulfonamide], for which the zone of inhibition at 10000 µg/mL in assay [1] was found to be 31 mm; in assay [2] it was 30 mm; in assay [3], 29 mm. The IC50 in assay [4] worked out at 4.30 ± 0.531 µg/mL (≈ 12.4 µM). Also, the MIC (in assay [5]; in the assay with tested microorganisms (setting [8])) was 125 µg/mL (≈ 360 µM) in each case.
